Assay results published in the supplement of paper PMC11208160.

Assay: recombinant barcode read abundance after kanamycin selection (control-corrected) (log10(CPM+1)); higher = more efficient recombination; sequences stand for … in AGTGCAGAGAAAATCGGCCAGTTTTCTCTGCCTGCAGTCCGCATGCCGT…AGATTTATGCAGCGGACTGCCTTTCTCCCAAAGTGATAAACCGGACAGTATCATGGACCGGTTTTCCCGGTAATCCGTATTTGCAAGGTTGGTTTCACT; site = the 11-nt target
Procedure, shortened: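 Recombination efficiency comes from barcode counts at recombinant junctions, converted to counts per million, averaged and corrected against the control. Values appear as log10(CPM+1). They were obtained from a pooled E. coli screen in which each oligo paired a target with an IS621 bridge RNA target-binding loop, and cells were plated in duplicate on chloramphenicol/ampicillin LB agar or on chloramphenicol/ampicillin/kanamycin with 0.1 mM IPTG.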
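Also: IS621 recombinase and bridge RNA in Escherichia coli cells.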

| Sequence | recombinant barcode read abundance (log10) |
| --- | --- |
| GTGAGAGCTTGGGTTCTAACCTGTTGCGG (site GTGAGCACTCC) | 0.0453 |
| GTGAGCACTTGGGTTCTAACCTGTTGCTA (site AATTAGCCTAG) | 0.0422 |
| GTGAGCACTTGGGTTCTAACCTGTTGCTA (site GTGAGCACTTA) | 0.337 |
| GTGAGGACTTGGGTTCTAACCTGTTGCCT (site ATGAGGACTAG) | 0.739 |
| GTGAGGACTTGGGTTCTAACCTGTTGCCT (site CTGAGGACTAG) | 0.133 |
| GTGAGGACTTGGGTTCTAACCTGTTGCCT (site GTGAGGACTAG) | 1.49 |
| GTGAGGACTTGGGTTCTAACCTGTTGCCT (site TTGAGGACTAG) | 0.316 |
| GTGAGGACTTGGGTTCTAACCTGTTGCGT (site GTGAGGACTAC) | 3.11 |
| GTGAGGACTTGGGTTCTAACCTGTTGCGT (site GTGCGGACTAC) | 0.236 |
| GTGAGGACTTGGGTTCTAACCTGTTGCTG (site GTGAGGACTCA) | 2.68 |
| GTGAGGACTTGGGTTCTAACCTGTTGCTG (site GTGTGGACTCT) | 0.0356 |
| GTGATAGCTTGGGTTCTAACCTGTTGCGG (site GATATAGCTCC) | 0.16 |
| GTGATAGCTTGGGTTCTAACCTGTTGCGG (site GTGATAGCTCC) | 1.12 |
| GTGATCCCTTGGGTTCTAACCTGTTGCCT (site GAGATCCCTAG) | 0.585 |
| GTGATCCCTTGGGTTCTAACCTGTTGCCT (site GTGATCCCTAG) | 1.18 |
| GTGCACCCTTGGGTTCTAACCTGTTGCTT (site GGGCATCCTAA) | 0.115 |
| GTGCACCCTTGGGTTCTAACCTGTTGCTT (site GTGCACCCTAA) | 1.57 |
| GTGCCTGCTTGGGTTCTAACCTGTTGCCT (site GCGCATGCTAG) | 0.039 |
| GTGCCTGCTTGGGTTCTAACCTGTTGCCT (site GTGCCTGCTAG) | 1.05 |
| GTGCGCCCTTGGGTTCTAACCTGTTGCGG (site GTGCGCCCTAC) | 0.369 |
| GTGCGCCCTTGGGTTCTAACCTGTTGCGG (site GTGCGCCCTCC) | 1.28 |
| GTGCGCTCTTGGGTTCTAACCTGTTGCGC (site CCAGCTGCTAG) | 0.0659 |

| Sequence | recombinant barcode read abundance (log10) |
| --- | --- |
| GTGCGCTCTTGGGTTCTAACCTGTTGCGC (site GTGCGCTCTGC) | 0.145 |
| GTGGAAGCTTGGGTTCTAACCTGTTGCCT (site GAGGAAGCTAG) | 0.316 |
| GTGGAAGCTTGGGTTCTAACCTGTTGCCT (site GCGGAAGCTAG) | 0.367 |
| GTGGAAGCTTGGGTTCTAACCTGTTGCCT (site GGGGAAGCTAG) | 0.262 |
| GTGGAAGCTTGGGTTCTAACCTGTTGCCT (site GTGGAAGCTAG) | 1.1 |
| GTGGATGCTTGGGTTCTAACCTGTTGCCT (site GGGGATTCTAG) | 0.28 |
| GTGGATGCTTGGGTTCTAACCTGTTGCCT (site GTGGATGCTAG) | 1.6 |
| GTGGGCCCTTGGGTTCTAACCTGTTGCCT (site GTATGCCCTAG) | 0.02 |
| GTGGGCCCTTGGGTTCTAACCTGTTGCCT (site GTGGGCCCTAG) | 2.07 |
| GTGGGCCCTTGGGTTCTAACCTGTTGCTG (site ATCGGCCCTCA) | 0.302 |
| GTGGGCCCTTGGGTTCTAACCTGTTGCTG (site GTGGGCCCTCA) | 2.73 |
| GTGGGCTCTTGGGTTCTAACCTGTTGCCT (site CTGGGCTCTTG) | 0.0529 |
| GTGGGCTCTTGGGTTCTAACCTGTTGCCT (site GTGGGCTCTAG) | 2.01 |
| GTGGTAGCTTGGGTTCTAACCTGTTGCCT (site GTGGTAACTAG) | 0.857 |
| GTGGTAGCTTGGGTTCTAACCTGTTGCCT (site GTGGTACCTAG) | 0.209 |
| GTGGTAGCTTGGGTTCTAACCTGTTGCCT (site GTGGTAGCTAG) | 1.42 |
| GTGGTAGCTTGGGTTCTAACCTGTTGCCT (site GTGGTATCTAG) | 0.0998 |
| GTGGTGGCTTGGGTTCTAACCTGTTGCCT (site GTGGTGGCTAG) | 0.764 |
| GTGGTGGCTTGGGTTCTAACCTGTTGCCT (site GTTGGGGCTAG) | 0.151 |
| GTGTAGGCTTGGGTTCTAACCTGTTGCAG (site GTGTAGGCTCT) | 2.66 |
| GTGTAGGCTTGGGTTCTAACCTGTTGCAG (site GTGTAGTCTCG) | 0.0205 |
| GTGTATCCTTGGGTTCTAACCTGTTGCCA (site GTGAAGCCTTG) | 0.186 |

| Sequence | recombinant barcode read abundance (log10) |
| --- | --- |
| GTGTATCCTTGGGTTCTAACCTGTTGCCA (site GTGTATCCTTG) | 0.196 |
| GTGTATTCTTGGGTTCTAACCTGTTGCCT (site ACTGTCACTCC) | 0.0809 |
| GTGTATTCTTGGGTTCTAACCTGTTGCCT (site GTGTATTCTAG) | 1.44 |
| GTGTCTACTTGGGTTCTAACCTGTTGCCT (site GTGTCTACTAG) | 0.754 |
| GTGTCTACTTGGGTTCTAACCTGTTGCCT (site TTGTATACTAG) | 0.0293 |
| GTGTCTCCTTGGGTTCTAACCTGTTGCGA (site GAGTGTCCTTC) | 0.00692 |
| GTGTCTCCTTGGGTTCTAACCTGTTGCGA (site GTGTCTCCTTC) | 0.996 |
| GTGTGGACTTGGGTTCTAACCTGTTGCAG (site GTGAGGACTCA) | 0.0484 |
| GTGTGGACTTGGGTTCTAACCTGTTGCAG (site GTGTGGACTCT) | 2.18 |
| GTGTGGCCTTGGGTTCTAACCTGTTGCCA (site GTGTGGCCTTG) | 0.574 |
| GTGTGGCCTTGGGTTCTAACCTGTTGCCA (site TCCGATACTAC) | 0 |
| GTGTGGCCTTGGGTTCTAACCTGTTGCTT (site GAGTGCCCTAA) | 0.107 |
| GTGTGGCCTTGGGTTCTAACCTGTTGCTT (site GTGTGGCCTAA) | 0.294 |
| GTGTGTACTTGGGTTCTAACCTGTTGCCT (site GTGTGTACTAG) | 1.21 |
| GTGTGTACTTGGGTTCTAACCTGTTGCCT (site GTGTGTCCTAG) | 0.101 |
| GTGTGTACTTGGGTTCTAACCTGTTGCCT (site GTGTGTGCTAG) | 0.24 |
| GTGTGTACTTGGGTTCTAACCTGTTGCCT (site GTGTGTTCTAG) | 0.0215 |
| GTGTGTGCTTGGGTTCTAACCTGTTGCCT (site GTGTGTACTAG) | 0.821 |
| GTGTGTGCTTGGGTTCTAACCTGTTGCCT (site GTGTGTCCTAG) | 0.0466 |
| GTGTGTGCTTGGGTTCTAACCTGTTGCCT (site GTGTGTGCTAG) | 1.44 |
| GTGTGTGCTTGGGTTCTAACCTGTTGCCT (site GTGTGTTCTAG) | 0.0513 |
| GTGTGTTCTTGGGTTCTAACCTGTTGCCA (site GTGTGTTCTTG) | 0.336 |

| Sequence | recombinant barcode read abundance (log10) |
| --- | --- |
| GTGTGTTCTTGGGTTCTAACCTGTTGCCA (site TTGTGTTCTTA) | 0.0943 |
| GTTACAACTTGGGTTCTAACCTGTTGCCT (site CTTACGACTAG) | 0.0197 |
| GTTACAACTTGGGTTCTAACCTGTTGCCT (site GTTACAACTAG) | 0.263 |
| GTTACGGCTTGGGTTCTAACCTGTTGCCT (site GTTACGGCTAG) | 0.0907 |
| GTTACGGCTTGGGTTCTAACCTGTTGCCT (site GTTCCGGCTAG) | 0.0623 |
| GTTACGGCTTGGGTTCTAACCTGTTGCCT (site GTTGCGGCTAG) | 0.0497 |
| GTTACGGCTTGGGTTCTAACCTGTTGCCT (site GTTTCGGCTAG) | 0 |
| GTTAGAGCTTGGGTTCTAACCTGTTGCCT (site GTTAGAGCTAG) | 1.32 |
| GTTAGAGCTTGGGTTCTAACCTGTTGCCT (site GTTCGAGCTAG) | 0.235 |
| GTTAGAGCTTGGGTTCTAACCTGTTGCCT (site GTTGGAGCTAG) | 0.0737 |
| GTTAGAGCTTGGGTTCTAACCTGTTGCCT (site GTTTGAGCTAG) | 0.225 |
| GTTAGGCCTTGGGTTCTAACCTGTTGCCT (site GATAGGCCTAG) | 0.0232 |
| GTTAGGCCTTGGGTTCTAACCTGTTGCCT (site GTTAGGCCTAG) | 0.292 |
| GTTCAACCTTGGGTTCTAACCTGTTGCCT (site GATCAACCTAG) | 0.242 |
| GTTCAACCTTGGGTTCTAACCTGTTGCCT (site GCTCAACCTAG) | 0.154 |
| GTTCAACCTTGGGTTCTAACCTGTTGCCT (site GGTCAACCTAG) | 0.0287 |
| GTTCAACCTTGGGTTCTAACCTGTTGCCT (site GTTCAACCTAG) | 1.48 |
| GTTCCTCCTTGGGTTCTAACCTGTTGCCT (site GTTCCTCCTAG) | 0.823 |
| GTTCCTCCTTGGGTTCTAACCTGTTGCCT (site GTTCCTGCTAG) | 0.0108 |
| GTTGAGTCTTGGGTTCTAACCTGTTGCGT (site CTTGAGCCTAC) | 0.0835 |
